We go through three molecules from article PMC8906060 (Antiviral Research, 2022).

Assay [1] deals with SARS-CoV-2 3CLpro (Severe acute respiratory syndrome coronavirus 2, UniProt P0DTD1). The format is biochemical. Particulars: read-out: 3CLpro IC50.
Assay [2] deals with 3CLpro (Severe acute respiratory syndrome coronavirus 2, UniProt P0DTD1). The format is biochemical, SARS-CoV-2.
The subject of assay [3] is SARS-CoV-2. As to the kind of experiment: microbe, parasite or virus in culture. The format is cell-based. Particulars: Severe acute respiratory syndrome coronavirus 2.
Assay [4] has as its system COVID-19. Conditions: COVID-19 patients, ref Beigel et al., 2020, cited from earlier work.

Molecules are shown by their SMILES.

`COC(=O)c1c(C)[nH]c(C(=O)COn2nnc3ccc(S(=O)(=O)N(C)C)cc32)c1C` [Compound 12]: the IC50 amounted to 1320 nM in assay [1] and 350 nM in assay [2] (read-out: FRET IC50).

On to `COc1ccc(-c2nc(NC(=O)c3ccc(C)c(F)c3)n[nH]2)cc1OC` [Compound 30], for which the “FRET IC50” value in assay [2] is listed as “high fluorescent signals”.

For `CCC(CC)COC(=O)[C@H](C)N[P@](=O)(OC[C@H]1O[C@@](C#N)(c2ccc3c(N)ncnn23)[C@H](O)[C@@H]1O)Oc1ccccc1` [Remdesivir], in assay [3], the EC50 is 1840 nM. In assay [4] (reduced from 15 days), the recovery is 11 days. For the same molecule, the effect on mortality entry in assay [4] is “no significant effect”.

As a reminder, the IC50 is the concentration that gives 50% inhibition. Broadly, the EC50 is the concentration at which the effect is half-maximal.
